Measured values published in publication PMC6272027, “Trithiocyanurate Complexes of Iron, Manganese and Nickel and Their Anticholinesterase Activity” (Molecules, 2014).

Target: cholinesterases (rat brain homogenate)
Experiment: In vitro anticholinesterase inhibition test (rat brain homogenate, acetylcholine iodide substrate, automatic titration)
Type: biochemical
Conditions: anticholinesterase activity in vitro; for IC50: rat brain homogenate, substrate acetylcholine iodide; for HillSlope: nonlinear regression (GraphPad Prism)
Experimental: In vitro inhibition test was conducted as described earlier. Solutions of the prepared Fe(L1)](ttcH2)(ClO4)·EtOH·H2O (1), [Mn3(phen)6(ttc)](ClO4)3 (2), and Ni2(L2)(ttcH)(ClO4)2·6H2O·EtOH (3) complexes of appropriate concentrations (concentration range from 10^−7 to 10^−1 M; 500 µL) were added to the suspension of rat brain homogenate (10 w/v in distilled water; 500 µL), solution of sodium chloride (3 M; 2.5 mL) and water (20 mL). Subsequently, a solution of acetylcholine iodide (0.02 M; 2.0 mL) was added (=starting of the enzyme reaction). The enzyme activity was immediately determined using of automatic titrator RTS 822 (Radiometer, Bronshoj, Denmark). The IC50 values were calculated from a plot of percent inhibition of cholinesterases versus its concentration. […] Nonlinear regression was performed using software for statistical analysis GraphPad Prism version 4 for Windows (GraphPad Software, San Diego, CA, USA; www.graphpad.com).

`O=S(=O)([O-])[O-].[Mn+2]` [MnSO4, reference compound] showed an IC50 of over 1000 µM.
For [Mn3(phen)6(ttc)](ClO4)3 [compound 2], the HillSlope was 0.2280 and the IC50 was 33.4 µM.
For `O=S(=O)([O-])[O-].[Ni+2]` [NiSO4, reference compound], the HillSlope was −0.3920 and the IC50 was 12900 µM.
`O=S(=O)([O-])[O-].[Fe+2]` [FeSO4, reference compound] was tested, and the IC50 was over 1000 µM.
